For 20 molecules, IC50 results are on record in patent US20230192705A1, “SHP2 INHIBITORS, COMPOSITIONS AND USES THEREOF” (Betta Pharmaceuticals Co., Ltd, priority 2020, published 2023).

This experiment deals with T1, SHP2 (Homo sapiens, UniProt Q06124).
T1 sequence (Q06124 1-593): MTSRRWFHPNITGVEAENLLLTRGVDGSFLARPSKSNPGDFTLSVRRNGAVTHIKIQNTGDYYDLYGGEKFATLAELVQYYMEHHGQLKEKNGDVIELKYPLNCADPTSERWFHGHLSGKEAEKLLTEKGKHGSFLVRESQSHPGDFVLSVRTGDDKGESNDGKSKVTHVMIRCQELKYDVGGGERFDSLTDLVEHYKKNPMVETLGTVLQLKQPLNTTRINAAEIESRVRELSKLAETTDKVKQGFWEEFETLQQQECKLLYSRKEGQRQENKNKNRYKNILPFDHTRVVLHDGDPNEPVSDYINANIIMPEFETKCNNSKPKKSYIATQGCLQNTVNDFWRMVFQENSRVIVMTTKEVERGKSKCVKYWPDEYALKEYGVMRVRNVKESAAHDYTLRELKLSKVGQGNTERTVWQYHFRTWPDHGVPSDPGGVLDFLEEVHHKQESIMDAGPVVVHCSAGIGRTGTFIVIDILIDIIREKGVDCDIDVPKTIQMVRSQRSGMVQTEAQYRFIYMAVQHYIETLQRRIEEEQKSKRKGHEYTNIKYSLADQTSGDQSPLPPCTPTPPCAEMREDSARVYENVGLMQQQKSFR
The experiment in a line: SHP2 allosteric inhibitor enzyme activity assay (DiFMUP fluorescence). Type of experiment: biochemical. Particulars: class symbols. From the text:
SHP2 is activated by the binding of a bis-tyrosyl-phosphorylated peptide to its Src homologous 2 (SH2) domain. This subsequent activation step leads to the release of the automatic inhibition interface of SHP2, which in turn activates the SHP2 protein tyrosine phosphatase (PTP) and can be used for substrate recognition and reaction catalysis. The catalytic activity of SHP2 was monitored using the alternative DiFMUP in a rapid fluorescence assay format.
Assay procedures are as follows:
(1) Compound Formulation:
The compound of the present invention (10 mM stock solution) was diluted to a suitable multiple with 100% DMSO and assay buffer, and the final test concentration of the compound of the present invention was 1 μM, 0.333 μM, 0.111 μM, 0.0370 μM, 0.0124 μM, 0.00412 μM, 0.00137 μM, 0.00046 μM, 0.00015 μM, 0.00 μM;
(2) Preparation of Enzyme Reaction Working Fluid:
SHP2 enzyme activity was performed using a final reaction volume of 50 μL and the following assay buffer conditions in 96-well black polystyrene plates (flat bottom, low flange, non-bonding surface) (Perki Elmer, Cat #6005270) at room temperature: 60 mM HEPES, 75 mM NaCl, 75 mM KCl, 0.05% BRIJ-35, 1 mM EDTA, 5 mM DTT.
(3) Enzyme Catalytic Reaction and Data Monitoring:
Compounds of the present invention were added to the corresponding 96-well plates, and no compound and enzyme were provided as blank test wells. SHP2 Activating Peptide (IRS1_pY1172 (dPEG8)pY1222) was placed on ice for melting, and 0.5 μM was added per well, then 0.2 ng SHP2 protein samples were added to corresponding well plates, and incubated at room temperature for 1 hour. Substrate DiFMUP (Invitrogen, Cat #D6567) was added to the reaction at room temperature for 1 hour. Fluorescence signals were monitored using an enzyme reader (Envision, Perki Elmer) using excitation wavelengths and emission wavelengths of 340 nm and 450 nm, respectively.
Inhibition %=[1−(Conversion_sample−Conversion_min)/(Conversion_max−Conversion_min)]*100% Calculation formula: […]
where: Conversion_sample is the mean reading of the sample wells; Conversion_min is the mean reading of blank control wells, representing the reading of the wells without enzyme; Conversion_max is the mean of positive control wells, representing the reading of the wells without inhibitor.
The dose-response curve is fitted with GraphPad Prism software and IC50 was calculated by the “log[inhibitor] vs. response-variable slope” program.
Molecule `N[C@@H]1c2ccccc2CC12CCN(c1nc3[nH]nc(C4(c5nncs5)CC4)c3c(=O)[nH]1)CC2` [Example 239, (S)-3-(1-(1,3,4-thiadiazol-2-yl)cyclopropyl)-6-(1-amino-1,3-dihydrospiro[indene-2,4′-piperidin]-1′-yl)-1,5-dihydro-4H-pyrazolo[3,4-d]pyrimidin-4-one] came in with an IC50 of at most 20 nM.
`Cc1cccc(C2(c3n[nH]c4nc(N5CCC6(CC5)Cc5ccccc5[C@H]6N)[nH]c(=O)c34)CC2)n1` [Example 248, (S)-6-(1-amino-1,3-dihydrospiro[indene-2,4′-piperidin]-1′-yl)-3-(1-(6-methylpyridin-2-yl)cyclopropyl)-1,5-dihydro-4H-pyrazolo[3,4-d]pyrimidin-4-one]: the IC50 is at most 20 nM.
As for `N[C@@H]1c2ccccc2CC12CCN(c1nc3[nH]nc([C@H]4C[C@H]4c4ccccc4)c3c3nncn13)CC2` [Example 107, (S)-1′-(9-((1S,2R)-2-phenylcyclopropyl)-7H-pyrazolo[4,3-e][1,2,4]triazolo[4,3-c]pyrimidin-5-yl)-1,3-dihydrospiro[indene-2,4′-piperidin]-1-amine], the figure is 20 to 60 nM; as for `N[C@@H]1c2ccccc2CC12CCN(c1nc3[nH]nc(C4=CC(F)(F)c5ccccc54)c3c(=O)[nH]1)CC2` [Example 175, (S)-6-(1-amino-1,3-dihydrospiro[indene-2,4′-piperidin]-1′-yl)-3-(1,1-difluoro-1H-inden-3-yl)-1,5-dihydro-4H-pyrazolo[3,4-d]pyrimidin-4-one], at most 20 nM.
As for `C[C@@H]1OCC2(CCN(c3cnc(C4(c5ccccc5)CC4)cn3)CC2)[C@@H]1N` [Example 258, (3S,4S)-3-methyl-8-(5-(1-phenylcyclopropyl)pyrazin-2-yl)-2-oxa-8-azaspiro[4.5]decan-4-amine], the figure is above 60 nM.
As for `COc1ccccc1C1(c2n[nH]c3nc(N4CCC5(CC4)Cc4ccccc4[C@H]5N)[nH]c(=O)c23)CC12CCCC2` (stereo partly drawn) [Example 101, 6-((S)-1-amino-1,3-dihydrospiro[indene-2,4′-piperidin]-1′-yl)-3-(1-(2-methoxyphenyl)spiro[2.4]heptan-1-yl)-1,5-dihydro-4H-pyrazolo[3,4-d]pyrimidin-4-one], the figure is 20 to 60 nM; as for `Cn1cc(-c2cccc(C3(c4n[nH]c5nc(N6CCC7(CC6)Cc6ccccc6[C@H]7N)[nH]c(=O)c45)CC3)c2)cn1` [Example 36, (S)-6-(1-amino-1,3-dihydrospiro[indene-2,4′-piperidin]-1′-yl)-3-(1-(3-(1-methyl-1H-pyrazol-4-yl)phenyl)cyclopropyl)-1,5-dihydro-4H-pyrazolo[3,4-d]pyrimidin-4-one], at most 20 nM; as for `C[C@@H]1OCC2(CCN(c3nc4[nH]nc(C5(c6ccccc6F)CC5)c4c(=O)[nH]3)CC2)[C@@H]1N` [Example 294, 6-((3S,4S)-4-amino-3-methyl-2-oxa-8-azaspiro[4.5]decan-8-yl)-3-(1-(2-fluorophenyl)cyclopropyl)-1,5-dihydro-4H-pyrazolo[3,4-d]pyrimidin-4-one], 20 to 60 nM.
Consider `C[C@@H]1OCC2(CCN(c3nc4[nH]nc(C5(c6cccnc6)CC5)c4c(=O)[nH]3)CC2)[C@@H]1N` [Example 275, 6-((3S,4S)-4-amino-3-methyl-2-oxa-8-azaspiro[4.5]decan-8-yl)-3-(1-(pyridin-3-yl)cyclopropyl)-1,5-dihydro-4H-pyrazolo[3,4-d]pyrimidin-4-one], for which the IC50 is 20 to 60 nM.
As for `C[C@@H]1OCC2(CCN(C3=NC(N)=C(C4(c5ccccc5)CC4)C4=NCCCN43)CC2)[C@@H]1N` [Example 265, (3S,4S)-8-(8-amino-9-(1-phenylcyclopropyl)-3,4-dihydro-2H-pyrimido[1,6-a]pyrimidin-6-yl)-3-methyl-2-oxa-8-azaspiro[4.5]decan-4-amine], the 50% inhibitory concentration (IC50) was above 60 nM.
`C[C@@H]1OCC2(CCN(c3nc4[nH]nc(C5(c6cc7ccccc7[nH]6)CC5)c4c(=O)[nH]3)CC2)[C@@H]1N` [Example 285, 3-(1-(1H-indol-2-yl)cyclopropyl)-6-((3S,4S)-4-amino-3-methyl-2-oxa-8-azaspiro[4.5]decan-8-yl)-1,5-dihydro-4H-pyrazolo[3,4-d]pyrimidin-4-one] returned an IC50 above 60 nM.
The value for `N[C@@H]1c2ccccc2CC12CCN(c1nc3[nH]nc(C4(c5cnccn5)CC4)c3c(=O)[nH]1)CC2` [Example 51, (S)-6-(1-amino-1,3-dihydrospiro[indene-2,4′-piperidin]-1′-yl)-3-(1-(pyrazin-2-yl)cyclopropyl)-1,5-dihydro-4H-pyrazolo[3,4-d]pyrimidin-4-one] was at most 20 nM; that for `C[C@@H]1OCC2(CCN(c3nc4[nH]nc(C5(c6ccc(OC(F)(F)F)cc6)CC5)c4c(=O)[nH]3)CC2)[C@@H]1N` [Example 307, 6-((3S,4S)-4-amino-3-methyl-2-oxa-8-azaspiro[4.5]decan-8-yl)-3-(1-(4-(trifluoromethoxy)phenyl)cyclopropyl)-1,5-dihydro-4H-pyrazolo[3,4-d]pyrimidin-4-one] was 20 to 60 nM.
With `Cc1ccccc1C1(c2n[nH]c3nc(N4CCC5(CC4)CO[C@@H](C)[C@H]5N)[nH]c(=O)c23)CC1` [Example 302, 6-((3S,4S)-4-amino-3-methyl-2-oxa-8-azaspiro[4.5]decan-8-yl)-3-(1-(o-tolyl)cyclopropyl)-1,5-dihydro-4H-pyrazolo[3,4-d]pyrimidin-4-one], the half-maximal inhibitory concentration (IC50) was 20 to 60 nM.
As for `N[C@@H]1c2ccccc2CC12CCN(c1nc3[nH]nc(-c4cc(=O)oc5ccccc45)c3c(=O)[nH]1)CC2` [Example 174, (S)-6-(1-amino-1,3-dihydrospiro[indene-2,4′-piperidin]-1′-yl)-3-(2-oxo-2H-chromen-4-yl)-1,5-dihydro-4H-pyrazolo[3,4-d]pyrimidin-4-one], the figure is at most 20 nM; as for `CP(C)(=O)c1cccc(C2(c3n[nH]c4nc(N5CCC6(CC5)Cc5ccccc5[C@H]6N)[nH]c(=O)c34)CC2)c1` [Example 224, (S)-6-(1-amino-1,3-dihydrospiro[indene-2,4′-piperidin]-1′-yl)-3-(1-(3-(dimethylphosphoryl)phenyl)cyclo-propyl)-1,5-dihydro-4H-pyrazolo[3,4-d]pyrimidin-4-one], at most 20 nM; as for `COc1cc(F)cc(C2(c3n[nH]c4nc(N5CCC6(CC5)CO[C@@H](C)[C@H]6N)[nH]c(=O)c34)CC2)c1` [Example 288, 6-((3S,4S)-4-amino-3-methyl-2-oxa-8-azaspiro[4.5]decan-8-yl)-3-(1-(3-fluoro-5-methoxyphenyl)cyclopropyl)-1,5-dihydro-4H-pyrazolo[3,4-d]pyrimidin-4-one], above 60 nM.
The value for `N[C@@H]1c2ccccc2CC12CCN(c1nc3[nH]nc(C4(c5cccc6c5COC6)CC4)c3c(=O)[nH]1)CC2` [Example 83, (S)-6-(1-amino-1,3-dihydrospiro[indene-2,4′-piperidin]-1′-yl)-3-(1-(1,3-dihydroisobenzofuran-4-yl)cyclopropyl)-1,5-dihydro-4H-pyrazolo[3,4-d]pyrimidin-4-one] was at most 20 nM.
With `N[C@@H]1c2ccccc2CC12CCN(c1nc3[nH]nc(C4(c5cccc6ccccc56)CC4)c3c(=O)[nH]1)CC2` [Example 77, (S)-6-(1-amino-1,3-dihydrospiro[indene-2,4′-piperidin]-1′-yl)-3-(1-(naphthalen-1-yl)cyclopropyl)-1,5-dihydro-4H-pyrazolo[3,4-d]pyrimidin-4-one], the half-maximal inhibitory concentration (IC50) is at most 20 nM.
The value for `N[C@@H]1c2ccccc2CC12CCN(c1nc3[nH]nc(C4=CCc5ccccc54)c3c(=O)[nH]1)CC2` [Example 172, (S)-6-(1-amino-1,3-dihydrospiro[indene-2,4′-piperidin]-1′-yl)-3-(1H-inden-3-yl)-1,5-dihydro-4H-pyrazolo[3,4-d]pyrimidin-4-one] was at most 20 nM.

Broadly, the IC50 is the concentration that inhibits the measured activity by half.
